The text below walks through data of US11999746B2, “Compounds” (GlaxoSmithKline Intellectual Property Development Limited, priority 2014, dated 2024).

Counter-ions that a name gives are not always drawn. A value given as a limit tells only on which side of the number the result lay.

In assay [1] the target is T1, recombinant human Lp-PLA2 (Homo sapiens, UniProt Q13093).
T1 sequence (Q13093 22-441): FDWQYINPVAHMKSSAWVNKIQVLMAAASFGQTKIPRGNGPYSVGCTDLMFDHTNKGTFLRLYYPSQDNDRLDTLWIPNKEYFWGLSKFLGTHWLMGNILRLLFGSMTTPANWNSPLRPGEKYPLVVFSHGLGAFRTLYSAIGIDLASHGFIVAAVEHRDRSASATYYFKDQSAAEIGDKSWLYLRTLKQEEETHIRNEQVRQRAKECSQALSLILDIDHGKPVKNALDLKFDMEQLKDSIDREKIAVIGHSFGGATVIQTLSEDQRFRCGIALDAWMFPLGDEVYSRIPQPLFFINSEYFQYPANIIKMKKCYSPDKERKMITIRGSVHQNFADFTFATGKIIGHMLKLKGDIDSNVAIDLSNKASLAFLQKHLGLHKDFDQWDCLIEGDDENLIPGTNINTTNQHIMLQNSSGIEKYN
Briefly: (1b) hrThioPAF assay, recombinant human Lp-PLA2. It counts as biochemical. Conditions: Examples 266-412 were tested here, one experiment or average of multiple experiments, read-out: rhLp-PLA2 (pIC50) (converted). The method, boiled down: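 Fluorogenic assay: 20 pM rhLp-PLA2 in 50 mM HEPES pH 7.4, 150 mM NaCl, 1 mM CHAPS with 1:3 serially diluted compounds; substrate mix of 40 μM 2-thio-PAF, 40 μM CPM, 400 μM NEM (pre-addition levels). 20 min at 25 °C in the dark; fluorescence ex 380/em 485 nm, pIC50 by curve fitting.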

Another assay deals with T2, Lp-PLA2 in human plasma (Homo sapiens, UniProt Q13093).
T2 construct: from tissue; host or cells: pooled human plasma
T2 sequence (Q13093 22-441): T1 sequence (Q13093 22-441)
The assay can be described thus: (3b) Lp-PLA2 human plasma alternative Thio-PAF assay. It counts as biochemical. The following applies: (3b) alternative Thio-PAF assay, pooled human plasma; Examples of 266-412 were tested here; read-out: pIC50 in the Lp-PLA2 human plasma assay (converted). The method, boiled down: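 Pooled human plasma was preincubated with compound for 15 min at RT. Substrate solution (2 mM 2-thio-PAF, 52 μM CPM, 2.5 mM NEM in 50 mM HEPES pH 7.4, 150 mM NaCl, 1 mM CHAPS; pre-addition concentrations) was added, and the reaction was quenched with 5% TFA after 3 min. Fluorescence was read at ex 380/em 485 nm and fitted to give pIC50.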

Turning to `N#Cc1cc(COc2cc3n(c(=O)n2)CC2CN(C(=O)C(F)(F)F)CCN32)ccc1F` (centres unmarked) [Example E323, 2-Fluoro-5-(((9-oxo-2-(2,2,2-trifluoroacetyl)-2,3,4,9,11,11a-hexahydro-1H-pyrazino[1′,2′:3,4]imidazo[1,2-c]pyrimidin-7-yl)oxy)methyl)benzonitrile], the IC50 in assay [1] is not above 10000 nM; at Lp-PLA2 in human plasma it was not above 100 nM.
In the same order, the values of `CC(C)(N)CC(=O)N1CCN2c3cc(OCc4ccc(F)c(C#N)c4)nc(=O)n3CC2C1` (centres unmarked) [Example E298, 5-(((2-(3-Amino-3-methylbutanoyl)-9-oxo-2,3,4,9,11,11a-hexahydro-1H-pyrazino[1′,2′:3,4]imidazo[1,2-c]pyrimidin-7-yl)oxy)methyl)-2-fluorobenzonitrile 2,2,2-trifluoroacetate] are not above 10000 nM and not above 100 nM.
On the same counts, the results for `O=C([C@@H]1CC(F)(F)CN1)N1CCN2c3cc(OCc4ccc(F)c(F)c4)nc(=O)n3CC2C1` (stereo partly drawn) [Example E342, 7-((3,4-Difluorobenzyl)oxy)-2-((S)-4,4-difluoropyrrolidin-2-carbonyl)-3,4,11,11a-tetrahydro-1H-pyrazino[1,2′:3,4]imidazo[1,2-c]pyrimidin-9(2H)-one] are not above 10000 nM and not above 100 nM.
In the same order, the values of `CC(C)OC(=O)N1CCN2c3cc(OCc4ccc(F)c(F)c4)nc(=O)n3CC2C1` (centres unmarked) [Example E307, Isopropyl 7-((3,4-difluorobenzyl)oxy)-9-oxo-3,4,11,11a-tetrahydro-1H-pyrazino[1′,2′:3,4]imidazo[1,2-c]pyrimidine-2(9H)-carboxylate] are not above 10000 nM and not above 100 nM.
`CS(=O)(=O)N1CCN2c3cc(OCc4ccc(F)c(F)c4)nc(=O)n3CC2C1` (centres unmarked) [Example E313, 7-((3,4-Difluorobenzyl)oxy)-2-(methylsulfonyl)-3,4,11,11a-tetrahydro-1H-pyrazino[1′,2′:3,4]imidazo[1,2-c]pyrimidin-9(2H)-one]: the IC50 (in assay [1]; on Lp-PLA2 in human plasma) was not above 100 nM throughout.
Regarding `CC(=O)N1CCN2c3cc(OCc4ccc(F)c(C#N)c4)nc(=O)n3CC2C1` (centres unmarked) [Example E281, 5-(((2-Acetyl-9-oxo-2,3,4,9,11,11a-hexahydro-1H-pyrazino[1′,2′:3,4]imidazo[1,2-c]pyrimidin-7-yl)oxy)methyl)-2-fluorobenzonitrile, trifluoroacetic Acid Salt], the IC50 is not above 10000 nM in assay [1] and not above 100 nM on Lp-PLA2 in human plasma.
In the case of `N[C@@H]1C[C@@H]2Cn3c(cc(OCc4cc(F)c(Oc5ccnc(C(F)(F)F)c5)c(F)c4)nc3=O)N2C1` [Example E387, (7R,8aR)-7-Amino-3-((3,5-difluoro-4-((2-(trifluoromethyl)pyridin-4-yl)oxy)benzyl)oxy)-7,8,8a,9-tetrahydropyrrolo[1′,2′:3,4]imidazo[1,2-c]pyrimidin-1(6H)-one], the IC50 in assay [1] is not above 10000 nM; at Lp-PLA2 in human plasma it was not above 100 nM.
Turning to `Cc1ccc(Oc2c(F)cc(COc3cc4n(c(=O)n3)CC3(CCOCC3)N4)cc2F)cn1` [Example 403, 7-((3,5-Difluoro-4-((6-methylpyridin-3-yl)oxy)benzyl)oxy)-2′,3′,5′,6′-tetrahydro-1H-spiro[imidazo[1,2-c]pyrimidine-2,4′-pyran]-5(3H)-one], the IC50 in assay [1] was not above 10000 nM; on Lp-PLA2 in human plasma, not above 100 nM.
On the same counts, the results for `O=c1nc(OCc2cc(F)c(Oc3ccnc(C(F)(F)F)c3)c(F)c2)cc2n1CC1C[S+]([O-])CCN21` (centres unmarked) [Example E369, 7-((3,5-Difluoro-4-((2-(trifluoromethyl)pyridin-4-yl)oxy)benzyl)oxy)-3,4,11,11a-tetrahydropyrimido[6′,1′:2,3]imidazo[5,1-c][1,4]thiazin-9(1H)-one 2-oxide] are not above 10000 nM and not above 100 nM.
In the same order, the values of `O=c1nc(OCc2cc(F)c(Oc3cncc(C(F)(F)F)c3)c(F)c2)cc2n1CC1CSCCN21` (centres unmarked) [Example E371, 7-((3,5-Difluoro-4-((5-(trifluoromethyl)pyridin-3-yl)oxy)benzyl)oxy)-3,4,11,11a-tetrahydropyrimido[6′,1′:2,3]imidazo[5,1-c][1,4]thiazin-9(1H)-one] are not above 1 nM and not above 100 nM.
